In brackets after ≈: the same amount, converted by molar mass. Like-named read-outs stand apart in the source and are kept apart here.
Tested on: E. coli ATCC 25922
Test: MIC against E. coli ATCC 25922
Type: cell-based
Conditions: Escherichia coli

CN(C)[C@@H]1C(O)=C(C(N)=O)C(=O)[C@@]2(O)C(O)=C3C(=O)c4c(O)cccc4[C@@](C)(O)[C@H]3[C@H](O)[C@@H]12 [oxytetracycline]
MIC (ATCC25922, read-out: oxytetracycline + 32 μg/mL tyrobetaine MIC): 8 µg/mL | MIC (ATCC25922, read-out: oxytetracycline MIC): 4 µg/mL (≈ 8.69 µM)

Reference: PMC5944846 (ACS chemical biology, 2018)
